Measurements published in patent US20220273608A1, “Methods for Treating Bone-Related Disorders” (University of Maryland, Baltimore, priority 2016, published 2022).
“Also recorded” adds a separate entry of the source. Like-named read-outs stand apart in the source and are kept apart here.

Key:
Ocy454 cells [1] = test: Ca2+ imaging (Fluo-4) of Ocy454 cells, with or without fluid shear stress; type: cell-based, mouse
Method: (§1) Cells in culture were exposed to fluid flow using a custom FSS device (63). Cell media was removed and cells were rinsed in HEPES-buffered Ringer solution containing 140 mM NaCl, 4 mM KCl, 1 mM MgSO4, 5 mM NaHCO3, 10 mM glucose, 1.8 mM CaCl2 and 10 mM HEPES (pH 7.3). Ringer solution was also used as fluid flow buffer. For Calcium-free conditions, HEPES-buffered Manganese Ringer solution, containing 140 mM NaCl, 4 mM KCl, 1 mM MgSO4, 5 mM NaHCO3, 10 mM glucose, 2 mM MnCI and 10 mM HEPES (pH 7.3), was used, and cells were loaded with BATPA AM ester (10 μM, 30 min). […] For Ca^2+ imaging, cells were loaded with Fluo-4 AM ester (ThermoFisher, 5 μM) for 30 min, washed, and allowed to rest for 15 min to allow dye de-esterification, as described. For ROS imaging, cells were loaded with CellROX (ThermoFisher, 5 μM) for 30 min and then washed 3 times, per the manufacturer's recommendations. Individual wells were imaged as described (39). Time-lapse fluorescence intensity measurements were collected using ImageJ Time Series Analyzer plugin and data was analyzed and plotted using Origin Pro software. Final results represent a minimum of three independent experiments performed on separate days with new cultures (n>700 cells/treatment group). All conditions were run with controls on each experimental day.

CaMKII = type: cell-based; details: for phospho-CaMKII (CaMKII activation): independently of FSS
Method: (§2) Cells in culture were exposed to fluid flow using a custom FSS device (63). Cell media was removed and cells were rinsed in HEPES-buffered Ringer solution containing 140 mM NaCl, 4 mM KCl, 1 mM MgSO4, 5 mM NaHCO3, 10 mM glucose, 1.8 mM CaCl2 and 10 mM HEPES (pH 7.3). Ringer solution was also used as fluid flow buffer. For Calcium-free conditions, HEPES-buffered Manganese Ringer solution, containing 140 mM NaCl, 4 mM KCl, 1 mM MgSO4, 5 mM NaHCO3, 10 mM glucose, 2 mM MnCI and 10 mM HEPES (pH 7.3), was used, and cells were loaded with BATPA AM ester (10 μM, 30 min).

sclerostin [2] = test: Immunoblotting for sclerostin / GAPDH in Ocy454 cells; type: cell-based, mouse; details: for sclerostin protein: independently of FSS
Method: as §2

Ocy454 cells [3] = test: ROS imaging (CellROX) of Ocy454 cells; type: cell-based, mouse; details: for ROS production: no FSS, CellROX
Method: as §1

Glu-tubulin [4] = test: Glu-tubulin in ex vivo murine long bone (western blot); details: murine cortical bone ex vivo
Description: The antibodies used were: sclerostin (R&D Sytems, AF1589), α-tubulin (Sigma, T9026), Glu-tubulin (Abcam, ab48389), phospho-CamK II Thr^286 (Cell Signaling Technologies, 12716S), total CaMKII (Cell Signaling Technologies, 11945S), and GAPDH (Millipore, MAB374).

Ocy454 cells [5] = test: Atomic force microscopy nano-indentation of Ocy454 cells; type: cell-based, mouse; details: AFM nanoindentation, 2 h treatment
Method: Ocy454 cells were plated onto 22 mm×22 mm glass coverslips and allowed to grow for 16-24 h at 37° C., 5% CO2 with αMEM media. Thereafter, cells were washed with PBS before being incubated with pharmacological agents as indicated for 2 h at 37° C., 5% CO2 in αMEM. After each treatment, cells were transferred to 60 mm culture dishes with pre-warmed HEPES based media containing identical concentrations of the aforementioned agents. Cells were probed with an MFP-1D atomic force microscope (Asylum Research) using MLCT cantilevers (Bruker) with a nominal spring constant of k=0.01 N/m. The pull distance used was 2 μm with a tip velocity of 4 μm/s to generate ˜1-2 nN of force onto the cell corresponding to ˜1 μm indentation ensuring that the cytoskeleton was effectively being probed. The elastic moduli (stiffness) of the cells were calculated using the Sneddon Hertz model as described (66).

Glu-tubulin [6] = details: Ocy454 cells in vitro
Description: The antibodies used were: a-tubulin (Sigma, T9026), Glu-tubulin (Abcam, ab48389) and TRPV4 (Abcam, ab39260).
Western blotting of whole cell extracts isolated from cells in culture following FSS or extracts isolated from murine long bone were done. Equal amounts of protein were loaded and electrophoresed on 10% SDS-PAGE gels and transferred to polyvinylidene difluoride membranes. Membranes were blocked in 5% non-fat dry milk (unless otherwise stated), probed with the indicated primary antibodies overnight and 4° C. Antibodies were detected with the appropriate horseradish peroxidase-conjugated secondary antibodies (Cell Signaling Technology) and enhanced chemiluminescence detection reagent (Biorad). […] Blots were acquired using an EpiChem gel documentation system (UVP Bioimaging Systems) and analyzed using ImageJ software.

Ocy454 cells [7] = test: Immunostaining for α-tubulin (microtubule network) in Ocy454 cells; details: α-tubulin immunofluorescence
sclerostin [8] = test: Bone derived sclerostin in colchicine treated aged mice; type: in vivo; details: aged mice (78 weeks), 1 mg/L colcrys in drinking water, 8 weeks
aged mice [9] = test: Bone formation and bone mass (DEXA, microCT) in colchicine treated aged mice; type: in vivo
aged mice [10] = test: Muscle testing in colchicine treated aged mice; type: in vivo; details: 8 weeks colchicine
Method: Young and aged mice were treated with colchicine as per the bone formation study followed by euthanasia and muscle testing. After 8 weeks aged mice had increased muscle power.

aged mice [11] = test: White adipose tissue in colchicine treated aged mice
[12] = cells treated with H2O2, no FSS
[13] = whole body DEXA, 8 weeks colchicine

In the case of `O=C(NC1(c2ccccc2)CC1)c1c(CN2CCC(N3CCCCC3)CC2)c(-c2cccc(C(F)(F)F)c2)nc2cc(Br)ccc12` [GSK2193874], the “% Cells Responding to FSS, Ca2+ response (mechano-sensitivity)” value (from here on “% Cells Responding to FSS, Ca2+ response”) (Ocy454 cells [1]; 4 dynes/cm^2 FSS) is reported as “statistically significant decrease”, the “Peak(ΔF/F) magnitude of Ca2+ response (mechano-responsiveness)” value (shortened to “Peak(ΔF/F) magnitude of Ca2+ response”) (Ocy454 cells [1]; 4 dynes/cm^2 FSS) is reported as “statistically significant decrease” and the “H2O2-induced Ca2+ influx” value (Ocy454 cells [1]; [12]) is reported as “blunted”. For the same compound, the “FSS-induced CaMKII phosphorylation” value (CaMKII; 4 dynes/cm^2 FSS) was “reduction”, the “FSS-induced decrease in sclerostin protein” value (“FSS-induced decrease” for short) (sclerostin [2]; 4 dynes/cm^2 FSS) was “blunted” and the “H2O2-induced ROS” value (Ocy454 cells [3]; [12]) was “without affecting”.
For `OO` [H2O2, Hydrogen peroxide], the “intracellular Ca2+” value (Ocy454 cells [1]; no FSS, Fluo-4) was “stimulated”, the “phospho-CaMKII (CaMKII activation)” value (CaMKII) was “increased” and the sclerostin protein (sclerostin [2]) was “reduced”. The ROS production (Ocy454 cells [3]) was “stimulated”.
`CC(=O)N[C@@H](CS)C(=O)O` [NAC, N-acetylcysteine] was tested, and the “FSS-induced Ca2+ response” value (Ocy454 cells [1]; 4 dynes/cm^2 FSS) was “abrogated”, the “FSS-induced Ca2+ response” value (Ocy454 cells [1]; 16 dynes/cm^2 FSS) was “abrogated” and the “FSS-induced CaMKII phosphorylation” value (CaMKII; FSS, magnitude not stated) was “reduction”. The “FSS-induced decrease” value (sclerostin [2]; FSS, magnitude not stated) was “blunting”.
In the case of `CC(=O)OCOC(=O)CN(CC(=O)OCOC(C)=O)c1ccccc1OCCOc1ccccc1N(CC(=O)OCOC(C)=O)CC(=O)OCOC(C)=O` [BAPTA AM], the “FSS-induced CaMKII phosphorylation” value (CaMKII; 4 dynes/cm^2 FSS) is reported as “inhibited” and the “FSS-induced decrease” value (sclerostin [2]; 4 dynes/cm^2 FSS) is reported as “inhibited”.
In the case of `CC(C)C[C@H](NC(=O)c1cc2ccccc2s1)C(=O)N1CCN(C(=O)[C@H](CO)NS(=O)(=O)c2ccc(Cl)cc2Cl)CC1` [GSK-1016790A], the “phospho-CaMKII (CaMKII activation)” value (CaMKII) is reported as “activation”, the sclerostin protein (sclerostin [2]) is reported as “reduction” and the ROS production (Ocy454 cells [3]) is reported as “insufficient to induce”.
In the case of `CC(=O)O[C@H]1C(=O)[C@@]2(C)[C@H]([C@H](OC(=O)c3ccccc3)[C@]3(O)C[C@H](OC(=O)[C@H](O)[C@@H](NC(=O)c4ccccc4)c4ccccc4)C(C)=C1C3(C)C)[C@]1(OC(C)=O)CO[C@@H]1C[C@@H]2O` [Taxol], the “% Cells Responding to FSS, Ca2+ response” value (Ocy454 cells [1]; 4 dynes/cm^2 FSS) is reported as “statistically significant decrease”, the “FSS-induced Ca2+ response” value (Ocy454 cells [1]; 4 dynes/cm^2 FSS) is reported as “blunts” and the “Peak(ΔF/F) magnitude of Ca2+ response” value (Ocy454 cells [1]; 4 dynes/cm^2 FSS) is reported as “decrease”. The “% Cells Responding to FSS, Ca2+ response” value (Ocy454 cells [1]; 16 dynes/cm^2 FSS) was “restored”, the “Peak(ΔF/F) magnitude of Ca2+ response” value (Ocy454 cells [1]; 16 dynes/cm^2 FSS) was “restored” and the “FSS-induced CaMKII phosphorylation” value (CaMKII; 4 dynes/cm^2 FSS) was “reduced; also recorded: blunts”. For the same compound, the “FSS-induced CaMKII phosphorylation” value (CaMKII; 16 dynes/cm^2 FSS) was “restored”, the “FSS-induced decrease” value (sclerostin [2]; 4 dynes/cm^2 FSS) was “blunts” and the “FSS-induced decrease” value (sclerostin [2]; 16 dynes/cm^2 FSS) was “restored”. The “amount of Glu-tubulin” value (Glu-tubulin [4]) was “markedly increased”, the “elastic modulus (cytoskeletal stiffness)” value (Ocy454 cells [5]) was “increased” and the “amount of Glu-tubulin” value (Glu-tubulin [6]) was “markedly increased; also recorded: marked increase”. For the same compound, the “microtubule network density / structure” value (Ocy454 cells [7]) was “increase in microtubule density”.
`COc1cc2c(c(OC)c1OC)-c1ccc(OC)c(=O)cc1[C@@H](NC(C)=O)CC2` [colchicine] was tested, and the “% Cells Responding to FSS, Ca2+ response” value (Ocy454 cells [1]; 4 dynes/cm^2 FSS) was “decreased”, the “Peak(ΔF/F) magnitude of Ca2+ response” value (Ocy454 cells [1]; 4 dynes/cm^2 FSS) was “reducing” and the “% Cells Responding to FSS, Ca2+ response” value (Ocy454 cells [1]; 16 dynes/cm^2 FSS) was “decreased”. The “Peak(ΔF/F) magnitude of Ca2+ response” value (Ocy454 cells [1]; 16 dynes/cm^2 FSS) was “reducing”, the “FSS-induced CaMKII phosphorylation” value (CaMKII; 4 dynes/cm^2 FSS) was “eliminated” and the “FSS-induced decrease” value (sclerostin [2]; 4 dynes/cm^2 FSS) was “eliminated”. For the same compound, the bone derived sclerostin (sclerostin [8]) was “decreased; also recorded: reduced”, the trabecular bone mass (aged mice [9]; 8 weeks colchicine) was “No changes were observed” and the bone accumulation (aged mice [9]; aged mice) was “increases”. The “bone formation rate (BFR) on the cortical bone perimeter” value (aged mice [9]; aged mice (78 weeks), 1 mg/L colcrys in drinking water, 8 weeks) was “increased; also recorded: improved”, the cortical bone volume (aged mice [9]; microCT, 8 weeks colchicine) was “tended towards increases” and the “polar mean moment of inertia” value (aged mice [9]; microCT, 8 weeks colchicine) was “tended towards increases”. For the same compound, the “bone mineral content (BMC)” value (aged mice [9]; [13]) was “tended towards increases”, the “bone mineral density (BMD)” value (aged mice [9]; [13]) was “tended towards increases” and the maximum contraction velocity (aged mice [10]) was “increase”. The maximum muscle power (aged mice [10]) was “increase; also recorded: improved”, the “muscle mass in the gastrocnemius muscle” value (aged mice [10]) was “did not increase” and the “white adipose accumulation / fat mass in white adipose depots” value (aged mice [11]) was “reduced”. The adipocyte area (aged mice [11]; 8 weeks colchicine) was 1441.64 μm^2, the gonadal fat (aged mice [11]; 8 weeks colchicine) was “reduced” and the inguinal fat (aged mice [11]; 8 weeks colchicine) was “reduced”. For the same compound, the “microtubule network density / structure” value (Ocy454 cells [7]) was “reduction”.
`COc1ccc(S(=O)(=O)N(CCO)c2ccccc2CN(C)C/C=C/c2ccc(Cl)cc2)cc1` [KN-93] was tested, and the “FSS-induced decrease” value (sclerostin [2]; 4 dynes/cm^2 FSS) was “prevented”.
